According to doi:10.1101/2024.11.06.622220v2 (biorxiv, 2024):
Where two headings read alike, the source gives them in different places.

Key:
[1] = system: JaPTAL; test: PAL activity kinetics, Michaelis-Menten; format: biochemical, Joinvillea ascendens; conditions: only the range for graminid PTALs is in the text
[2] = system: JaPTAL; conditions: read-out: apparent Km; also printed as 11.0 μM

Structure (SMILES)	Km [1] [µM]	Km [2] [µM]
N[C@@H](Cc1ccccc1)C(=O)O [Phe]	65.6 ± 1.4	
N[C@@H](Cc1ccc(O)cc1)C(=O)O [Tyr]		10.9
